From patent US20220187282A1, “CARDIOMYOCYTE PROLIFERATION” (The Council of the Queensland Institute of Medical Research, priority 2019, published 2022)

Columns and labels:
mature hCO = test: single organoid quantitative proteomics of mature hCO; assay type: cell-based, human; conditions: for cell cycle programs regulated at the protein level: mature hCO, 2 days
Method: Single hCO were washed 2× in PBS and snap frozen and stored at −80° C. Tissues were lysed in by tip-probe sonication in 1% SDS containing 100 mM Tris pH 8.0, 10 mM tris(2-carboxyethyl)phosphine, 40 mM 2-chloroacetamide and heated to 95° C. for 5 min. Proteins were purified using a modified Single-Pot Solid-Phase-enhanced Sample Preparation (SP3) strategy (Hughes et al., 2014). Briefly, Proteins were bound to Sera-Mag carboxylate coated paramagnetic beads in 50% acetonitrile containing 0.8% formic acid (v/v) (ThermoFisher Scientific). The beads were washed twice with 70% ethanol (v/v) and once with 100% acetonitrile. Proteins were digested on the beads in 100 mM Tris pH 7.5 containing 10% 2,2,2-Trifluoroethanol overnight at 37° C. with 200 ng of sequencing grade LysC (Wako Chemicals) and trypsin (Sigma). Beads were removed and peptides acidified to 1% trifluoroacetic acid prior to purification by styrene divinyl benzene-reversed phase sulfonated solid phase extraction microcolumns. Peptides were spiked with iRT peptides (Biognosys) and analysed on an Easy-nLC1200 coupled to a Q-Exactive HF in positive polarity mode. Peptides were separated using an in-house packed 75 μm×50 cm pulled column (1.9 μm particle size, C18AQ; Dr Maisch) with a gradient of 2-35% acetonitrile containing 0.1% FA over 120 min at 300 nL/min at 60° C. The instrument was operated in data-independent acquisition (DIA) mode essentially as described previously (Bruderer et al., 2017). Briefly, an MS1 scan was acquired from 350-1650 m/z (120,000 resolution, 3e6 AGC, 50 ms injection time) followed by 20 MS/MS variable sized isolation windows with HCD (30,000 resolution, 3e6 AGC, 27 NCE). A spectral library was created by fractionating a pooled mix of peptides from 10 separate hCO on an inhouse packed 320 μm×25 cm column (3 μm particle size, BEH; Waters) with a gradient of 2-40% acetonitrile containing 10 mM ammonium formate over 60 min at 6 μL/min using an Agilent 1260 HPLC. A total of 12 concatenated fractions were analysed using the identical LC-MS/MS conditions above except the instrument was operated in data-dependent acquisition (DDA) mode. Briefly, an MS1 scan was acquired from 350-1650 m/z (60,000 resolution, 3e6 AGC, 50 ms injection time) followed by 20 MS/MS with HCD (1.4 m/z isolation, 15,000 resolution, 1e5 AGC, 27 NCE). DDA data were processed with Andromeda in MaxQuant v1.5.8.3 (Cox and Mann, 2008) against the human UniProt database (January 2016) using all default settings with peptide spectral matches and protein false discovery rate (FDR) set to 1%. DIA data were processed with Spectronaut v11 (Bruderer et al., 2015) using all default settings with precursor and protein FDR set to 1% and quantification performed at MS2.
Proteomic data were Log 2 transformed and median normalised. Removal of unwanted variation method (RUV) was applied to remove any batch effects (Gagnon-Bartsch et al., 2013). Differential abundance was determined with two sample t-tests with FDR-based multiple hypothesis testing correction. GO analysis was performed with DAVID v6.8 and gene ontology terms from BP_FAT (Huang da et al., 2009) and heat-maps and hierarchical clustering was performed using GENE-E (Broad Institute).
In order to determine the biological processes driving the pro-proliferative effects of our hit compounds, we performed RNA-sequencing (RNA-seq) and single organoid quantitative proteomics (FIG. 4A). These analyses were performed on hCOs treated with compounds 3, 63 and 65 at concentrations of 3 μM, 0.3 μM and 1 μM, respectively. RNA-seq for hCO treated with compounds 3 and 65 clustered distinctly in principal component analysis (FIG. 4B) and regulated a total of 239 and 207 genes (FIG. 9A), respectively.

mature hCOs = test: mature hCO, cardiomyocyte proliferation (Ki-67 intensity, Ki-67+ α-actinin cardiomyocytes); assay type: cell-based, human; conditions: mature hCO; for Ki-67+ cardiomyocytes: 2 days, compound 3 at 3 μM, 63 at 0.3 μM, 65 at 1 μM; for proliferative response (Ki-67 intensity) with 10 μM simvastatin: 1 μM compound 65, 3 μM compound 3 or 10 μM compound 6.28; for proliferation above the optimal concentrations: above 3 μM (compound 3), above 1 μM (compound 65)
Method: hCOs were cultured in CTRL medium for formation for 5 days and then either kept in CTRL medium culture or changed to maturation medium (Mills et al., 2017a) comprising DMEM without glucose, glutamine and phenol red (ThermoFisher Scientific) supplemented with 4% […](without insulin) (ThermoFisher Scientific), 1% GlutaMAX (ThermoFisher Scientific), 200 μM L-ascorbic acid 2-phosphate sesquimagnesium salt hydrate and 1% Penicillin/Streptomycin (ThermoFisher Scientific), 1 mmol/L glucose and 100 μmon palmitic acid (conjugated to bovine serum albumin within B27 by incubating for 2h at 37° C., Sigma) with changes every 2-3 days.
Whole-Mount Immunostaining hCOs were fixed for 60 min with 1% paraformaldehyde (Sigma) at room temperature and washed 3× with PBS, after which they were incubated with primary antibodies (see Star Methods Table) in Blocking Buffer, 5% FBS and 0.2% Triton-X-100 (Sigma) in PBS overnight at 4° C. Cells were then washed in Blocking Buffer 2× for 2 h and subsequently incubated with secondary antibodies (see Star Methods Table) and Hoechst33342 (1:1000) overnight at 4° C. They were washed in Blocking Buffer 2× for 2 h and imaged in situ or mounted on microscope slides using Fluoromount-G (Southern Biotech).
For screening hCOs were imaged using a Leica DMi8 high content imaging microscope for in situ imaging. Custom batch processing files were written in Matlab R2013a (Mathworks) to remove the background, calculate the image intensity, and export the batch data to an Excel (Microsoft) spreadsheet.
For more detailed images an Olympus IX81 confocal microscope was used for mounted hCO imaging. For cell cycle analysis experiments 3 random fields of view were imaged and manually quantified for proliferation. These were added together to calculate the percentage of hPSC-CM proliferation in each hCO.
Hits were next validated in mature hCOs using a targeted concentration range based on their active concentrations in the initial immature hCO screen (FIG. 3A). Proliferation markers were quantified using high magnification confocal imaging as we found flow cytometry to be inaccurate in hCO (data not shown). Compounds 3, 63 and 65 had no impact on contractile force (FIG. 3B) at concentrations of 3 μM, 0.3 μM and 1 μM, respectively. […] The effects of both compound 3 and compound 65 were reversible, with proliferation ceasing within 5 days of compound withdrawal (FIG. 8B). Therefore, compound 3 (FIG. 3G) and compound 65 (Goldberg et al., 2009) (FIG. 3H) are both capable of inducing bona fide cardiomyocyte proliferation in mature hCOs without adversely affecting contractile properties.

| Structure (SMILES) | induction of the mevalonate pathway (cholesterol biosynthetic process enzymes) (mature hCO; mature hCO proteomics) | proliferation signature proteins (cell cycle network, mevalonate enzymes, nuclear transporters) (mature hCO; mature hCO proteomics) | cell cycle programs regulated at the protein level (mature hCO) | Ki-67+ cardiomyocytes (mature hCOs) | proliferative response (Ki-67 intensity) with 10 μM simvastatin (mature hCOs) | proliferation above the optimal concentrations (mature hCOs) | Ki-67+ cardiomyocytes with 10 μM simvastatin (mature hCOs; 3 μM compound 3) |
| --- | --- | --- | --- | --- | --- | --- | --- |
| Cc1cc(Oc2ccnc(Nc3ccc(S(N)(=O)=O)cc3)c2)c(-c2ccccn2)nc1C [compound 65] | most robust inducers | induced | DNA replication, G1/S transition and G2/M transition | increased | abolished | no further increase |  |
| Cc1ccc(NC(=O)c2ccnc(N3CCOCC3)c2)cc1Nc1ccnc(N2CC(C)OC(C)C2)n1 (stereo not drawn) [compound 3] |  | induced | DNA replication, G1/S transition and G2/M transition | increased | abolished | no further increase | abolished |
